Legend:
[1] = Solubility in aqueous systems; format: physicochemical
Text: Five cocrystals of 2-4-(4-chloro-2-fluorophenoxy)phenyl]pyrimidine-4-carboxamide (Compound 1) were identified by using techniques of the disclosure. […] Although the permeability of Compound 1 could not be measured in Caco-2 cells because of its inherently low solubility, Compound 1 is suspected to be a Class II compound (low solubility and high permeability) as described in the biopharmaceutical drug classification scheme (BCS) (Amidon, Gordon L., Lennernaes, Hans, Shah, Vinod P. and Crison, John R. (1995) “A theoretical basis for a biopharmaceutic drug classification: the correlation of in vitro drug product dissolution and in vivo bioavailability” Pharmaceutical Research […], 12(3), 4 13-20). The calculated octanol/water partition coefficient (clogP) for Compound 1 is 2.9, supporting this suspicion (Yazdanian, Mehran, Glynn, Susan L., Wright, James L., and Hawi, Amale. (1998) “Correlating partitioning and Caco-2 cell permeability of structurally diverse small molecular weight compounds” Pharmaceutical Research 1998 15(9), 1490-1494). […] Cocrystallization techniques were used as a tool to improve the pharmaceutical properties of Compound 1.

[2] = Intrinsic dissolution studies; format: physicochemical; conditions: crystalline solid
Description: Intrinsic dissolution measurements were performed using a fiber optic probe (Delphian® type 11A fiber optic workstation, baseline correction mode with sample wavelength maximum of 279 nm and baseline wavelength of 350 nm) at 37° C. and 100 rpm in a USP apparatus II dissolution vessel (Vankel VK7010) containing 500 mL of pure water. Disks 0.8 cm diameter were compressed using 70 mg of solid in stainless steel dies (Vankel Woods apparatus) at 1000 lbs for 60 seconds with a Carver Press. Dissolution studies for cocrystal 2 lasted 90 minutes, after which time the disks were recovered, carefully ground and checked by XRPD for the presence of cocrystal. Due to the low solubility of Compound 1, dissolution studies were run over 24 hours in order to get a measurable rate.

[3] = Pharmacokinetic evaluation in beagle dogs after oral dosing of neat solid in gelatin capsule; format: in vivo; conditions: oral dosing of the crystalline solid
Description: A study was conducted to compare the pharmacokinetic profiles of Compound 1 and Cocrystal 2. Compound 1 and Cocrystal 2 were administered as neat solids to six male beagle dogs in a crossover study with a two-week washout period between treatments. Each dog was dosed with either Compound 1 or Cocrystal 2 in a gelatin capsule after an overnight fast. All research involving animal subjects adhered to the “Principles of Laboratory Animal Care” (NIH publication #85-23). Dose levels of 5 mg/kg and 50 mg/kg were each evaluated. Each dog received one size #2 capsule for the 5 mg/kg dose. Dosing at 50 mg/kg required use of two size #00 capsules for each dog. Blood samples were collected at intervals for 36 hours post-dose. Non-compartmental pharmacokinetic metrics were determined using WinNonlin v. 1.5 (Scientific Consulting, Inc., Mountain View, Calif.). The area under the plasma concentration-time curve (AUC) was estimated by application of the linear trapezoidal rule. Statistical analyses were conducted using Microsoft Excel 2000; statistical significance was considered when p<0.05.

solubility in aqueous systems [1]: < 0.1 µg/mL | in-vitro dissolution [2]: low | in-vivo plasma concentrations [3]: low
SMILES: NC(=O)c1ccnc(-c2ccc(Oc3ccc(Cl)cc3F)cc2)n1 [Compound 1]

Reference: patent US20070088508A1, “Cocrystallization methods” (priority 2005, published 2007)
